Reference: PubChem BioAssay AID2060626 (Molecular Pharmacology Branch, DTP, NCI, 2025)

System: 168753-222-R-J1-PDC complex spheroid viability
Test: Anticancer human tumor 168753-222-R-J1-PDC patient-derived bladder carcinoma cell line growth inhibition [CLK]
Conditions: for IC50: curve of first compound; for viability, T/C: stronger effect = lower value
Outline: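 Patient-derived tumor cells grown as complex spheroids with HUVEC endothelial cells and mesenchymal stem cells, treated with drug combinations. Concentrations descend in half-log steps from near clinical Cmax, or from 10 microM if Cmax unknown.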
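Also: viability measured after seven days of drug exposure.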
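For viability, T/C in this document: luminescence signal used as surrogate for viable cell amount; 100% = DMSO vehicle control wells.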

IC50 (second compound 0.0316 µM): 2.09 nM
IC50 (second compound 0.1 µM): 2.31 nM
IC50 (second compound 0.316 µM): 1.8 nM
IC50 (second compound 1 µM): < 0.949 nM
IC50 (second compound 3.16 µM): < 0.949 nM
IC50 (second compound 10 µM): < 0.949 nM
SMILES: CC(C)CC(NC(=O)C(Cc1ccccc1)NC(=O)c1cnccn1)B(O)O (configuration not stated) + CNC(=O)c1ccc(Nc2nc(OC3CCCC3)c3c(-c4ccc5nc(C)oc5c4)c[nH]c3n2)c(OC)c1
viability, T/C (second compound 0.0316 µM, first compound 0.000949 µM): 98.6%
viability, T/C (second compound 0.0316 µM, first compound 0.003 µM): 27.7%
viability, T/C (second compound 0.0316 µM, first compound 0.00949 µM): 3.13%
viability, T/C (second compound 0.0316 µM, first compound 0.03 µM): 0.6%
viability, T/C (second compound 0.0316 µM, first compound 0.0949 µM): 1.66%
viability, T/C (second compound 0.0316 µM, first compound 0.3 µM): 0.44%
viability, T/C (second compound 0.1 µM, first compound 0.000949 µM): 89.3%
viability, T/C (second compound 0.1 µM, first compound 0.003 µM): 38.4%
viability, T/C (second compound 0.1 µM, first compound 0.00949 µM): 1.22%
viability, T/C (second compound 0.1 µM, first compound 0.03 µM): 0.27%
viability, T/C (second compound 0.1 µM, first compound 0.0949 µM): 0.53%
viability, T/C (second compound 0.1 µM, first compound 0.3 µM): 2.04%
viability, T/C (second compound 0.316 µM, first compound 0.000949 µM): 76.4%
viability, T/C (second compound 0.316 µM, first compound 0.003 µM): 29%
viability, T/C (second compound 0.316 µM, first compound 0.00949 µM): 0.8%
viability, T/C (second compound 0.316 µM, first compound 0.03 µM): 0.28%
viability, T/C (second compound 0.316 µM, first compound 0.0949 µM): 1.74%
viability, T/C (second compound 0.316 µM, first compound 0.3 µM): 0.24%
viability, T/C (second compound 1 µM, first compound 0.000949 µM): 38.4%
viability, T/C (second compound 1 µM, first compound 0.003 µM): 26.5%
viability, T/C (second compound 1 µM, first compound 0.00949 µM): 2.8%
viability, T/C (second compound 1 µM, first compound 0.03 µM): 0.43%
viability, T/C (second compound 1 µM, first compound 0.0949 µM): 2.22%
viability, T/C (second compound 1 µM, first compound 0.3 µM): 1.45%
viability, T/C (second compound 3.16 µM, first compound 0.000949 µM): 21.6%
viability, T/C (second compound 3.16 µM, first compound 0.003 µM): 20.2%
viability, T/C (second compound 3.16 µM, first compound 0.00949 µM): 0.44%
viability, T/C (second compound 3.16 µM, first compound 0.03 µM): 0.17%
viability, T/C (second compound 3.16 µM, first compound 0.0949 µM): 0.2%
viability, T/C (second compound 3.16 µM, first compound 0.3 µM): 0.35%
viability, T/C (second compound 10 µM, first compound 0.000949 µM): 21%
viability, T/C (second compound 10 µM, first compound 0.003 µM): 18.4%
viability, T/C (second compound 10 µM, first compound 0.00949 µM): 0.38%
viability, T/C (second compound 10 µM, first compound 0.03 µM): 1.09%
viability, T/C (second compound 10 µM, first compound 0.0949 µM): 1.85%
viability, T/C (second compound 10 µM, first compound 0.3 µM): 0.25%
